Data: US20240190831A1, “TRANSTHYRETIN STABILIZING COMPOUNDS” (Protego Biopharma, Inc., priority 2021, published 2024)

Experiment: In vitro rat liver S9 stability assay (formation of tafamidis)
Type: in vitro ADME
Details: rat liver S9, 1 μM test compound, 37° C.
Experimental: A stability assay in liver S9 (rat or human) was used to evaluate the ability of a compound provided herein to convert to an active TTR stabilizer. The test compound was added to liver S9 and incubated at 37° C. in a water bath at a concentration of 1 μM. At each time point (0, 5, 10, 20, 30 and 60 min), stop solution (tolbutamide plus labetalol) was added to precipitate protein and mixed thoroughly. After centrifugation, an aliquot of supernatant was analyzed by LC-MS/MS. The percentage of formation of active agent was calculated at each time point.
For `CC(CO)NC(=O)c1ccc2nc(-c3cc(Cl)cc(Cl)c3)oc2c1` (stereo not shown) [Compound 10, 2-(3,5-dichlorophenyl)-N-(1-hydroxypropan-2-yl)benzo[d]oxazole-6-carboxamide], the “Formation of tafamidis at 60 min” value was “A (A is <25%)”.
In the case of `CC(O)CNC(=O)c1ccc2nc(-c3cc(Cl)cc(Cl)c3)oc2c1` (stereo not shown) [Compound 11, 2-(3,5-dichlorophenyl)-N-(2-hydroxypropyl)benzo[d]oxazole-6-carboxamide], the “Formation of tafamidis at 60 min” value is reported as “A (A is <25%)”.
In the case of `O=C(NC1CC1(F)F)c1ccc2nc(-c3cc(Cl)cc(Cl)c3)oc2c1` (stereo not shown) [Compound 12, 2-(3,5-dichlorophenyl)-N-(2,2-difluorocyclopropyl)benzo[d]-oxazole-6-carboxamide], the “Formation of tafamidis at 60 min” value is reported as “A (A is <25%)”.
For `O=C(NC1CCCCC1(F)F)c1ccc2nc(-c3cc(Cl)cc(Cl)c3)oc2c1` (stereo not shown) [Compound 13, 2-(3,5-dichlorophenyl)-N-(2,2-difluorocyclohexyl)benzo[d]oxazole-6-carboxamide], the “Formation of tafamidis at 60 min” value was “A (A is <25%)”.
With `O=C(NC1CCCC(F)(F)C1)c1ccc2nc(-c3cc(Cl)cc(Cl)c3)oc2c1` (stereo not shown) [Compound 14, 2-(3,5-dichlorophenyl)-N-(3,3-difluorocyclohexyl)benzo[d]oxazole-6-carboxamide] the “Formation of tafamidis at 60 min” value was “A (A is <25%)”.
With `O=C(NC1CCC(F)(F)CC1)c1ccc2nc(-c3cc(Cl)cc(Cl)c3)oc2c1` [Compound 15, 2-(3,5-dichlorophenyl)-N-(4,4-difluorocyclohexyl)benzo[d]oxazole-6-carboxamide] the “Formation of tafamidis at 60 min” value was “A (A is <25%)”.
For `O=C(NC1COC1)c1ccc2nc(-c3cc(Cl)cc(Cl)c3)oc2c1` [Compound 16, 2-(3,5-dichlorophenyl)-N-(oxetan-3-yl)benzo[d]oxazole-6-carboxamide], the “Formation of tafamidis at 60 min” value was “A (A is <25%)”.
In the case of `O=C(NC1CCOC1)c1ccc2nc(-c3cc(Cl)cc(Cl)c3)oc2c1` (stereo not shown) [Compound 17, 2-(3,5-dichlorophenyl)-N-(tetrahydrofuran-3-yl)benzo[d]oxazole-6-carboxamide], the “Formation of tafamidis at 60 min” value is reported as “A (A is <25%)”.
For `O=C(NC1CCC1)c1ccc2nc(-c3cc(Cl)cc(Cl)c3)oc2c1` [Compound 18, N-cyclobutyl-2-(3,5-dichlorophenyl)benzo[d]oxazole-6-carboxamide], the “Formation of tafamidis at 60 min” value was “A (A is <25%)”.
In the case of `O=C(NC1CCCC1)c1ccc2nc(-c3cc(Cl)cc(Cl)c3)oc2c1` [Compound 19, N-cyclopentyl-2-(3,5-dichlorophenyl)benzo[d]oxazole-6-carboxamide], the “Formation of tafamidis at 60 min” value is reported as “A (A is <25%)”.
For `O=C(NC1CC1)c1ccc2nc(-c3cc(Cl)cc(Cl)c3)oc2c1` [Compound 20, N-cyclopropyl-2-(3,5-dichlorophenyl)benzo[d]oxazole-6-carboxamide], the “Formation of tafamidis at 60 min” value was “A (A is <25%)”.
With `CN1CCC(NC(=O)c2ccc3nc(-c4cc(Cl)cc(Cl)c4)oc3c2)C1` (stereo not shown) [Compound 21, 2-(3,5-dichlorophenyl)-N-(1-methylpyrrolidin-3-yl)benzo[d]oxazole-6-carboxamide] the “Formation of tafamidis at 60 min” value was “A (A is <25%)”.
With `O=C(NC1CCN(CCF)C1)c1ccc2nc(-c3cc(Cl)cc(Cl)c3)oc2c1` (stereo not shown) [Compound 22, 2-(3,5-dichlorophenyl)-N-(1-(2-fluoroethyl)pyrrolidin-3-yl)benzo[d]oxazole-6-carboxamide] the “Formation of tafamidis at 60 min” value was “A (A is <25%)”.
With `O=C(NC1CCN(CC(F)F)C1)c1ccc2nc(-c3cc(Cl)cc(Cl)c3)oc2c1` (stereo not shown) [Compound 23, 2-(3,5-dichlorophenyl)-N-(1-(2,2-difluoroethyl)pyrrolidin-3-yl)benzo[d]oxazole-6-carboxamide] the “Formation of tafamidis at 60 min” value was “A (A is <25%)”.
With `O=C(NC1CCN(CC(F)(F)F)C1)c1ccc2nc(-c3cc(Cl)cc(Cl)c3)oc2c1` (stereo not shown) [Compound 24, 2-(3,5-dichlorophenyl)-N-(1-(2,2,2-trifluoroethyl)pyrrolidin-3-yl)benzo[d]oxazole-6-carboxamide] the “Formation of tafamidis at 60 min” value was “A (A is <25%)”.
With `O=C(N[C@H]1C[C@H](O)C1)c1ccc2nc(-c3cc(Cl)cc(Cl)c3)oc2c1` [Compound 26, 2-(3,5-dichlorophenyl)-N-((trans)-3-hydroxycyclobutyl)-benzo[d]oxazole-6-carboxamide] the “Formation of tafamidis at 60 min” value was “A (A is <25%)”.
In the case of `O=C(N[C@H]1C[C@@H](O)C1)c1ccc2nc(-c3cc(Cl)cc(Cl)c3)oc2c1` [Compound 27, 2-(3,5-dichlorophenyl)-N-((Cis)-3-hydroxycyclobutyl)benzo-[d]oxazole-6-carboxamide], the “Formation of tafamidis at 60 min” value is reported as “A (A is <25%)”.
In the case of `O=C(OCCc1ccn[nH]1)c1ccc2nc(-c3cc(Cl)cc(Cl)c3)oc2c1` [Compound 36, 2-(1H-pyrazol-5-yl) ethyl 2-(3,5-dichlorophenyl)benzo[d]oxazole-6-carboxylate], the “Formation of tafamidis at 60 min” value is reported as “D (D is ≥75%)”.
In the case of `CCC(Cc1ncc[nH]1)OC(=O)c1ccc2nc(-c3cc(Cl)cc(Cl)c3)oc2c1` (stereo not shown) [Compound 37, 1-(1H-imidazol-2-yl) butan-2-yl 2-(3,5-dichlorophenyl)benzo-[d]oxazole-6-carboxylate], the “Formation of tafamidis at 60 min” value is reported as “A (A is <25%)”.
In the case of `CC(Cc1ccn[nH]1)OC(=O)c1ccc2nc(-c3cc(Cl)cc(Cl)c3)oc2c1` (stereo not shown) [Compound 38, 1-(1H-pyrazol-5-yl)propan-2-yl 2-(3,5-dichlorophenyl) benzo[d]oxazole-6-carboxylate], the “Formation of tafamidis at 60 min” value is reported as “B (B is ≥25 to <50%)”.
For `O=C(OCCCO)c1ccc2nc(-c3cc(Cl)cc(Cl)c3)oc2c1` [Compound 40, 3-hydroxypropyl 2-(3,5-dichlorophenyl)benzo[d]oxazole-6-carboxylate], the “Formation of tafamidis at 60 min” value was “B (B is ≥25 to <50%)”.
With `CC(CCO)OC(=O)c1ccc2nc(-c3cc(Cl)cc(Cl)c3)oc2c1` (stereo not shown) [Compound 41, 4-hydroxybutan-2-yl 2-(3,5-dichlorophenyl) benzo [d] oxazole-6-carboxylate] the “Formation of tafamidis at 60 min” value was “C (C is ≥50 to <75%)”.
In the case of `CC(N1CCC(OC(=O)c2ccc3nc(-c4cc(Cl)cc(Cl)c4)oc3c2)C1)C(F)(F)F` (stereo not shown) [Compound 45, 1-(1,1,1-trifluoropropan-2-yl)pyrrolidin-3-yl 2-(3,5-dichlorophenyl)benzo[d]oxazole-6-carboxylate], the “Formation of tafamidis at 60 min” value is reported as “B (B is ≥25 to <50%)”.
In the case of `CC1(C)CCC(OC(=O)c2ccc3nc(-c4cc(Cl)cc(Cl)c4)oc3c2)C1` (stereo not shown) [Compound 48, 3,3-dimethylcyclopentyl 2-(3,5-dichlorophenyl)benzo[d]oxazole-6-carboxylate], the “Formation of tafamidis at 60 min” value is reported as “B (B is ≥25 to <50%)”.
With `O=C(OC1CCN(c2cccnc2)C1)c1ccc2nc(-c3cc(Cl)cc(Cl)c3)oc2c1` (stereo not shown) [Compound 49, 1-(pyridin-3-yl)pyrrolidin-3-yl 2-(3,5-dichlorophenyl)benzo-[d]oxazole-6-carboxylate] the “Formation of tafamidis at 60 min” value was “B (B is ≥25 to <50%)”.
For `O=C(OC1CCN(c2ccncc2)C1)c1ccc2nc(-c3cc(Cl)cc(Cl)c3)oc2c1` (stereo not shown) [Compound 50, 1-(pyridin-4-yl)pyrrolidin-3-yl 2-(3,5-dichlorophenyl)benzo-[d]oxazole-6-carboxylate], the “Formation of tafamidis at 60 min” value was “A (A is <25%)”.
For `O=C(OC1CCN(c2ncccn2)C1)c1ccc2nc(-c3cc(Cl)cc(Cl)c3)oc2c1` (stereo not shown) [Compound 51, 1-(pyrimidin-2-yl)pyrrolidin-3-yl 2-(3,5-dichlorophenyl)benzo-[d]oxazole-6-carboxylate], the “Formation of tafamidis at 60 min” value was “B (B is ≥25 to <50%)”.
In the case of `O=C(OC1CCN(c2cnccn2)C1)c1ccc2nc(-c3cc(Cl)cc(Cl)c3)oc2c1` (stereo not shown) [Compound 52, 1-(pyrazin-2-yl)pyrrolidin-3-yl 2-(3,5-dichlorophenyl)benzo-[d]oxazole-6-carboxylate], the “Formation of tafamidis at 60 min” value is reported as “A (A is <25%)”.
In the case of `O=C(OC1CCN(c2ccncn2)C1)c1ccc2nc(-c3cc(Cl)cc(Cl)c3)oc2c1` (stereo not shown) [Compound 53, 1-(pyrimidin-4-yl)pyrrolidin-3-yl 2-(3,5-dichlorophenyl)benzo-[d]oxazole-6-carboxylate], the “Formation of tafamidis at 60 min” value is reported as “A (A is <25%)”.
With `O=C(OC1CCN(c2cccnn2)C1)c1ccc2nc(-c3cc(Cl)cc(Cl)c3)oc2c1` (stereo not shown) [Compound 54, 1-(pyridazin-3-yl)pyrrolidin-3-yl 2-(3,5-dichlorophenyl)benzo-[d]oxazole-6-carboxylate] the “Formation of tafamidis at 60 min” value was “A (A is <25%)”.
In the case of `O=C(OC1CCN2CCCCC12)c1ccc2nc(-c3cc(Cl)cc(Cl)c3)oc2c1` (stereo not shown) [Compound 55, Octahydroindolizin-1-yl 2-(3,5-dichlorophenyl)benzo[d]oxazole-6-carboxylate], the “Formation of tafamidis at 60 min” value is reported as “B (B is ≥25 to <50%)”.
With `Cc1ncc2n1CC(OC(=O)c1ccc3nc(-c4cc(Cl)cc(Cl)c4)oc3c1)CC2` (stereo not shown) [Compound 56, 3-methyl-5,6,7,8-tetrahydroimidazo [1,5-a] pyridin-6-yl 2-(3,5-dichlorophenyl) benzo[d]oxazole-6-carboxylate] the “Formation of tafamidis at 60 min” value was “A (A is <25%)”.
For `CC(C)(N1CCC(OC(=O)c2ccc3nc(-c4cc(Cl)cc(Cl)c4)oc3c2)C1)C(F)(F)F` (stereo not shown) [Compound 57, 1-(1,1,1-trifluoro-2-methylpropan-2-yl)pyrrolidin-3-yl 2-(3,5-dichlorophenyl)benzo[d]oxazole-6-carboxylate], the “Formation of tafamidis at 60 min” value was “A (A is <25%)”.
In the case of `O=C(OC1CCc2nc[nH]c2C1)c1ccc2nc(-c3cc(Cl)cc(Cl)c3)oc2c1` (stereo not shown) [Compound 60, 4,5,6,7-tetrahydro-1H-benzo[d]imidazol-6-yl 2-(3,5-dichlorophenyl) benzo[d]oxazole-6-carboxylate], the “Formation of tafamidis at 60 min” value is reported as “A (A is <25%)”.
